US20180282735A1, “PHARMACEUTICAL COMPOSITION FOR NEURODEGENERATIVE BRAIN DISEASE AND SCREENING METHOD FOR THE SAME” (MACROGEN, INC., priority 2017, published 2018)

Experiments:
HEK293 tau-BiFC cells = format: cell-based; settings: for level of tau phosphorylation: HEK293 Tau-BiFC cell line, FIG. 5b; for tau accumulation (tau-BiFC): HEK293 tau-BiFC, FIG. 5
Excerpt: (§1) The establishment of the HEK293/tau-BiFC cell line was previously described (Tak H, Hague M M, Kim M J, Lee J H, Baik J H, Kim Y et al. Himolecular fluorescence complementation; lighting-up Tau-Tau interaction in living cells. PLOS One 2013; 8: e81682). Venus fluorescence protein amino-terminal fragment (VN 173) and carboxyl-terminal fragment (VC 155), which are independently non-fluorescent, were fused to full-length tau proteins. For neuronal cell expression, tau-BiFC constructs (pCMV6-hTau40-VN173 and pCMV6-hTau-VC155) were transfected into SH-SY5Y. SH-SY5Y/tau-BiFC stable cells were selected using Geneticin (200 μg/ml). […] All established cell lines were grown in Dulbecco's modified eagle medium containing 10% fetal bovine serum, […] and 1 μg/ml of Geneticin at 37° C. in a humidified atmosphere containing 5% CO2.
(§2) For microscopic image analysis, HEK293 tau-BiFC and SH-SY5Y tau-BiFC cells were plated onto a black 384-well plate. The next day, tau-BiFC cells were treated with okadaic acid (O8010, Sigma), cyclosporine A (C3662, Sigma) or deltamethrin (D9315, Sigma) at various concentrations. After incubation for 29 hours, the plate was imaged using the Operetta® high contents imaging system (PerkinElmer). The cellular intensities of tau-BiFC fluorescence were analyzed using the Harmony® 3.1 analysis software. Each experiment was performed in triplicate. The bar graphs for BiFC intensity indicate the means ±SEM from three independent experiments.

SH-SY5Y tau-BiFC cells = format: cell-based; settings: for level of tau phosphorylation: SH-SY5Y Tau-BiFC cell line, FIG. 5b; for dose dependence of tau phosphorylation level: SH-SY5Y Tau-BiFC, various concentrations, 29 hours, FIG. 5c; for tau accumulation (tau-BiFC): SH-SY5Y tau-BiFC, FIG. 5
Excerpt: as §1, §2

PP2B = target: T1, PP2B (Homo sapiens, UniProt Q08209); settings: by binding to cyclophilin or FKBP respectively; cited from earlier work
T1 construct: endogenous in cells; host or cells: SH-SY5Y/tau-BiFC and HEK293/tau-BiFC cells

Compound | level of tau phosphorylation (HEK293 tau-BiFC cells) | tau accumulation (tau-BiFC) (HEK293 tau-BiFC cells) | level of tau phosphorylation (SH-SY5Y tau-BiFC cells) | dose dependence of tau phosphorylation level (SH-SY5Y tau-BiFC cells) | tau accumulation (tau-BiFC) (SH-SY5Y tau-BiFC cells) | intensity of tau phosphorylation (HEK293 tau-BiFC cells; HEK 293 cell line, FIG. 5d) | enzyme activity inhibition (PP2B)
CC1(C)[C@H](C(=O)O[C@H](C#N)c2cccc(Oc3ccccc3)c2)[C@@H]1C=C(Br)Br [deltamethrin] | increased | increase of tau accumulation | increased | declining trend after the threshold of 3 μM | increase of tau accumulation | – | –
C=C1[C@@H](O)[C@@H]2O[C@]3(CC[C@H](/C=C/[C@@H](C)[C@@H]4CC(C)=C[C@@]5(O[C@H](C[C@@](C)(O)C(=O)O)CC[C@H]5O)O4)O3)CC[C@H]2O[C@@H]1[C@@H](O)C[C@H](C)[C@H]1O[C@@]2(CCCCO2)CC[C@H]1C [okadaic acid] | increased | increase of tau accumulation | increased | elevated the level of tau phosphorylation in a dose-dependent manner | increase of tau accumulation | higher intensity of tau phosphorylation | –
cyclosporine A | increased | increase of tau accumulation | increased | elevated the level of tau phosphorylation in a dose-dependent manner | increase of tau accumulation | – | inhibits specifically enzyme activity
